Measured values: patent US9988380B2, “Quorum sensing inhibitors” (priority 2013, dated 2018)
Where two headings read alike, the source gives them in different places.

Assays:
pqsA-gfp(ASV) expression = test: Inhibition of the PQS QS system, pqsA-gfp(ASV) reporter in PAO1 wild-type and lasR mutant; assay type: cell-based, P. aeruginosa
Procedure: Inhibition of the Rhl and PQS QS systems in wild-type PAO1 and PAO1 lasR mutant. Wild-type P. aeruginosa PAO1 strains harboring either the rhlA-gfp(ASV) reporter or the pqsA-gfp(ASV) reporter, and a P. aeruginosa PAO1 lasR mutant harboring either the rhlA-gfp(ASV) reporter or the pqsA-gfp(ASV) reporter were used for this experiment (Refer to FIG. 11 for strain information). Overnight cultures of these four strains were diluted 100-fold in ABTGC media within 96-well microtitre plates to a final volume of 200 μL per well. Each of the five QSIs was added in triplicate to a final concentration of 50 μM. 0.5% DMSO was used as a negative control. The microtitre plate was incubated at 37° C. in a Tecan Infinite 200 Pro plate reader where GFP and OD600 readings were measured at 15 min intervals.
Effect of QSIs on Rhl and Pqs Quorum-Sensing Systems. In order to address the problem of the specificity of present compounds, the five identified QSI compounds were tested to see if they had any effect on the rhl and pqs systems. The five QSIs were tested against a PAO1 wild-type and a PAO1 lasR mutant harboring either the rhlA-gfp (ASV) bioreporter or the pqsA-gfp (ASV) bioreporter. The rhlA system is dependent on the RhlR/I system. By doing so, we were able to determine if a QSI is able to inhibit the other two QS systems (i.e. rhl and pqs) in a lasR-dependent/independent manner (FIG. 8).

LasR = biological target: T1, LasR (Pseudomonas aeruginosa, UniProt P25084); test: AHL competition assay between QSI and OdDHL in heterologous E. coli lasB-gfp(ASV) strain; assay type: cell-based, P. aeruginosa
T1 construct: expressed in transfected cells; host or cells: E. coli lasB-gfp(ASV) reporter strain
Procedure: E. coli Competition Assay between QSI compounds and OdDHL. The E. coli lasB-gfp(ASV) reporter strain was used for the competition assay, which was performed in a similar manner to the P. aeruginosa LasR inhibition assay. OdDHL and the QSI to be studied were added to the wells of a microtitre plate containing ABTGC media. Wells without OdDHL and/or QSI were included as controls. An overnight culture of E. coli lasB-gfp(ASV) strain, grown in LB medium at 37° C. with shaking, was diluted to an OD600 of 0.2, and 100 μl of bacterial suspension was added to each well of the microtitre plate. […] GFP and OD600 readings were obtained as described above for the P. aeruginosa LasR inhibition assay.
AHL Competition Assay Using the Heterologous E. coli lasB-gfp (ASV) strain. The five QSI candidates were tested for their specificity in inhibiting the LasR receptor by incubating these QSIs with the E. coli lasB-gfp (ASV) reporter strain. LasR is under the control of the Lac promoter and is constitutively expressed, and only LasR can activate gfp expression in this system.

T1 sequence (P25084 whole entry): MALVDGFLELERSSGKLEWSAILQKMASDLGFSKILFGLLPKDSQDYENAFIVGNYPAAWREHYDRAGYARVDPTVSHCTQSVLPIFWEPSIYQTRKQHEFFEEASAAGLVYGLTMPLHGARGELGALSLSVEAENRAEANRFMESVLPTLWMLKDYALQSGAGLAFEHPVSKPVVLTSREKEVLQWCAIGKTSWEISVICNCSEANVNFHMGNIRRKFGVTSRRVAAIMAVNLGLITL

`N=c1[nH]c(=O)c2nn[nH]c2[nH]1` [Compound G1, 5-imino-4,6-dihydro-3H-1,2,3-triazolo[5,4-d]pyrimidin-7-one] was tested, and the “inhibition of pqsA-gfp expression” value (pqsA-gfp(ASV) expression; PAO1 lasR mutant, 50 μM QSI) was 24.4%, the “inhibition of pqsA-gfp expression” value (pqsA-gfp(ASV) expression; wild-type PAO1, 50 μM QSI) was 57.5% and the “relative fluorescence (GFP/OD600)” value (LasR; 320 nM OdDHL with 100 μM G1) was 711.5. For the same compound, the “relative fluorescence (GFP/OD600)” value (LasR; 100 μM G1 and no OdDHL) was 438.1, the “specific inhibition of LasR activity in the competition assay” value (LasR; E. coli lasB-gfp(ASV), with OdDHL) was “specifically inhibit LasR activity” and the “concentration sufficient in inhibiting OdDHL-LasR induction of gfp expression” value (LasR; in the presence of 320 nM OdDHL) was 1.56 µM. The inhibition at 100 µM (LasR; read-out: inhibition as compared to the control without G1, 100 μM G1, in the absence of OdDHL) was 30.2% and the inhibition at 100 µM (LasR; read-out: inhibition as compared to the control without G1, 100 μM G1, in the presence of 320 nM OdDHL) was 46.9%.
